Assay [1] has as its system miniTERRA (RNA, G4) UUAGGGUUAGGGUUAGGGUUAGGGUUA
Put plainly: fluorescent indicator displacement (ThT). The following applies: pH 7.4, 34 °C, 5 µM RNA, 5 µM ThT displaced.

The test system is the same in assay [2]. Briefly: ThT fluorescence light-up. The following applies: pH 7.4, 34 °C, 5 µM RNA, 5 µM ThT.
Assay [3] concerns Negative control (RNA, single strand) UUACCCUUACCCUUACCCUUACCCUUA
Briefly: ThT fluorescence light-up. The following applies: pH 7.4, 34 °C, 5 µM RNA, 5 µM ThT highest tested.

Each structure is given as a SMILES string.

One may read the IC50 as the concentration that gives 50% inhibition. The low end stands for greater potency, the high end for weaker potency. As for `NCCOc1cc(C(=O)Nc2cc(OCCN)c3ccccc3n2)nc(C(=O)Nc2cc(OCCN)c3ccccc3n2)c1`, the IC50 was 17.23 ± 0.28 µM in assay [1] (K+ (100 mM phosphate)) and 19.29 ± 0.25 µM in assay [1] (Na+ (100 mM phosphate)).
Consider `Cc1ccc2c(c1)sc(-c1ccc(N(C)C)cc1)[n+]2C`, for which the binding result in assay [2] (K+ (100 mM phosphate)) is listed as “yes”; in assay [2] (Na+ (100 mM phosphate)) it was “yes”; in assay [3] (K+ (100 mM phosphate)) it was “no”; in assay [3] (Na+ (100 mM phosphate)) it was “no”.

The values are drawn from paper PMC10141139 (2023).
